Source: patent publication US20090299044A1 (priority 2006, published 2009)
“Also recorded” adds a separate entry of the source. Bridge positions count the residues as written; N and C are the ends. Peptide text beside a SMILES is read from it.

Tests used:
human Kv1.3 (CHO) = target: T1, human Kv1.3 (CHO) (Homo sapiens, UniProt P22001); assay: cell-based
T1 construct: expressed in transfected cells; host or cells: CHO

human Kv1.3 channel = human Kv1.3 channel (Homo sapiens, UniProt P22001); assay: cell-based; assay type: cell-based
human Kv1.1 (HEK293) = target: T2, human Kv1.1 (HEK293) (Homo sapiens, UniProt Q09470); assay: cell-based
T2 construct: expressed in transfected cells; host or cells: HEK293

human Kv1.1 = human Kv1.1 (Homo sapiens, UniProt Q09470); assay: cell-based; design: expressed in transfected cells; host or cells: HEK293
[1] = rat, in vivo, iv, 1 mg/kg
[2] = cited from earlier work
[3] = system: IL-2R on CD4+ T cells, human whole blood; assay type: cell-based
[4] = system: IL-2 production, human whole blood; assay type: cell-based
[5] = system: CD40L on CD4+ T cells, human whole blood; assay type: cell-based
[6] = system: IFN-g production, human whole blood; assay type: cell-based
[7] = target: human Kv1.1 voltage-gated potassium channel (human) (UniProt Q09470); assay: cell-based or functional assay
[8] = target: human Kv1.3 voltage-gated potassium channel (human) (UniProt P22001); assay: cell-based or functional assay
Chain of human Kv1.3 voltage-gated potassium channel (human) (P22001 whole entry): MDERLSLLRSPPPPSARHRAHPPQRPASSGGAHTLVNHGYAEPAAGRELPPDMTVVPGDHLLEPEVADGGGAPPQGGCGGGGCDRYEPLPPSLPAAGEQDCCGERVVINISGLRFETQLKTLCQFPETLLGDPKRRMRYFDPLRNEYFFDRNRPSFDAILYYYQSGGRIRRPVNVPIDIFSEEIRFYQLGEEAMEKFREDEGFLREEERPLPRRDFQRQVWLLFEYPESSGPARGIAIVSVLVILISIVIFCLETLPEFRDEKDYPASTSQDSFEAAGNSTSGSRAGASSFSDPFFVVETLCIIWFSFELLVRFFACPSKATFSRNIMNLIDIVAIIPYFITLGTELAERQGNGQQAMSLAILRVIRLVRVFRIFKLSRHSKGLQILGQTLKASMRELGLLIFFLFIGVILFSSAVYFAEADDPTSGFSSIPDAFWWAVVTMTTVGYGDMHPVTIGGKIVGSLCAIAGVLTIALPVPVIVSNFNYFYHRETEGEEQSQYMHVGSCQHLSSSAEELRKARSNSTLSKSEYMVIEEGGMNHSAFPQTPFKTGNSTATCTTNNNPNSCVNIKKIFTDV

Chain of OSK1 (native Orthochirus scrobiculosus toxin peptide) (P55896 whole entry): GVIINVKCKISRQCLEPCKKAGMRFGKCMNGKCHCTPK
Chain of human Kv1.3 channel (P22001 whole entry): as the sequence (P22001 whole entry) above
T1 sequence (P22001 whole entry): as above
T2 sequence (Q09470 whole entry): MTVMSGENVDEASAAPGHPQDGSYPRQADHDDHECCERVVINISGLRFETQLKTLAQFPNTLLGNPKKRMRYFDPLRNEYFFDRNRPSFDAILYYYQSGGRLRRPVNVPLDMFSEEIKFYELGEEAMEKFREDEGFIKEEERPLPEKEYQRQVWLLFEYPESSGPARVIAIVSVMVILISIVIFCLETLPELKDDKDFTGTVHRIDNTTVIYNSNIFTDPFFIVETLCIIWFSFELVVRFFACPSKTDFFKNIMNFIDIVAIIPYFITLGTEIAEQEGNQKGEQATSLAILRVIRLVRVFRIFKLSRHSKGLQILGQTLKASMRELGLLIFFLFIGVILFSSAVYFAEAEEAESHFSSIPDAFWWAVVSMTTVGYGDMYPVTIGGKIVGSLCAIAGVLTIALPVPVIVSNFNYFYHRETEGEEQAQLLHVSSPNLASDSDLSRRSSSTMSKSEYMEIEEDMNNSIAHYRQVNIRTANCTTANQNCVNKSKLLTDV
Chain of human Kv1.1 voltage-gated potassium channel (human) (Q09470 whole entry): as above
Chain of human Kv1.1 (Q09470 whole entry): as above

With `CC[C@H](C)[C@@H]1NC(=O)[C@H](CCCCN)NC(=O)[C@@H](NC(=O)[C@H](CCCCN)NC(=O)[C@@H](NC(=O)[C@H](CC(N)=O)NC(=O)[C@@H](NC(=O)[C@@H](NC(=O)[C@@H](NC(=O)CN)C(C)C)[C@@H](C)CC)[C@@H](C)CC)C(C)C)CSSC[C@@H]2NC(=O)[C@H](C)NC(=O)CNC(=O)[C@H](Cc3ccccc3)NC(=O)[C@H](CCCNC(=N)N)NC(=O)[C@H](CCSC)NC(=O)CNC(=O)[C@H](C)NC(=O)[C@H](CCCCN)NC(=O)[C@H](CCCCN)NC(=O)[C@@H]3CSSC[C@@H](C(=O)N[C@H](C(=O)N4CCC[C@H]4C(=O)N[C@@H](CCCCN)C(=O)O)[C@@H](C)O)NC(=O)[C@H](Cc4c[nH]cn4)NC(=O)[C@H](CSSC[C@H](NC(=O)[C@H](CCC(N)=O)NC(=O)[C@H](CCCNC(=N)N)NC(=O)[C@H](CO)NC1=O)C(=O)N[C@@H](CC(C)C)C(=O)N[C@@H](CCC(=O)O)C(=O)N1CCC[C@H]1C(=O)N3)NC(=O)[C@H](CCCCN)NC(=O)CNC(=O)[C@H](CC(N)=O)NC(=O)[C@H](CCSC)NC2=O` [K27A] (H-GVIINVKCKISRQCLEPCKKAGMRFGACMNGKCHCTPK-OH; disulfide 8-28, 14-33, 18-35) as the compound, how does the IC50 (human Kv1.3 (CHO)) read?
Its IC50 is 0.232 nM.

What about the IC50 (human Kv1.3 channel) of the same compound?
The IC50 was 0.289 nM.

And the IC50 (human Kv1.1 (HEK293))?
The IC50 was over 3 nM.

What about the IC50 (human Kv1.1) of the same compound?
The IC50 was 10.1 nM.

For `CC[C@H](C)[C@@H]1NC(=O)[C@@H](NC(=O)[C@H](CO)NC(=O)[C@@H](N)CCCNC(=N)N)CSSC[C@@H](C(=O)O)NC(=O)[C@H]([C@@H](C)O)NC(=O)CNC(=O)[C@@H]2CSSC[C@@H]3NC(=O)[C@H](CCC(N)=O)NC(=O)[C@H](Cc4ccccc4)NC(=O)[C@H](C)NC(=O)[C@H]([C@@H](C)O)NC(=O)[C@H](CSSC[C@H](NC(=O)[C@H](Cc4ccccc4)NC(=O)[C@H](CO)NC(=O)[C@H](CC(C)C)NC(=O)[C@H](CCCNC(=N)N)NC(=O)[C@H](Cc4ccc(O)cc4)NC(=O)[C@H](CCCCN)NC(=O)[C@H](CCSC)NC(=O)[C@H](CO)NC(=O)[C@H](Cc4cnc[nH]4)NC(=O)[C@H](CCCCN)NC3=O)C(=O)N[C@@H](CCCNC(=N)N)C(=O)N[C@@H](CCCCN)C(=O)N[C@@H]([C@@H](C)O)C(=O)N2)NC(=O)[C@H](CCCNC(=N)N)NC(=O)[C@H](CO)NC(=O)[C@H](CCCCN)NC(=O)[C@@H]2CCCN2C(=O)[C@H]([C@@H](C)CC)NC(=O)[C@H]([C@@H](C)O)NC(=O)[C@H](CC(=O)O)NC1=O` [ShK[1-35]], which “duration of significant suppression of Kv1.3 current (<70 POC) by 5% serum Test solutions” value [1] is on record?
The value was at most 1 h.

And the half-life in vivo [2]?
The half-life in vivo was about 20 min.

And the “half-life of the native ShK molecule” value ([2]; in vivo)?
Its value is “approximately 0.33 hour”.

With “Fc-L10-ShK[2-35]: human IgG1 Fc fused via 10 amino acid linker to ShK[2-35], CHO-derived peptibody” as the compound, how does the “thapsigargin-induced upregulation of the IL-2R on T cells in human whole blood (in words)” value [3] read?
Its value is “suppressing activation of the IL-2R on CD4+ T cells; also recorded: blocked”.

What about the “block of human Kv1.3 current (in words)” value (human Kv1.3 channel) of the same compound?
The value was “potently blocks”.

What about the “thapsigargin-induced IL-2 production in human whole blood (in words)” value [4] of the same compound?
The value was “potently blocked IL-2 secretion in human whole blood; also recorded: suppressed”.

And the “thapsigargin-induced upregulation of CD40L on T cells in human whole blood (in words)” value [5]?
Its value is “blocked”.

And the “thapsigargin-induced IFN-g production in human whole blood (in words)” value [6]?
The value was “suppressed; also recorded: blocked”.

Which “thapsigargin-induced upregulation of the IL-2R on T cells in human whole blood (in words)” value [3] does the source give for “IbTx: BKCa channel inhibitor iberiotoxin, Bachem (QFTDVDCSVSKECWSVCKDLFGVDRGKCMGKKCRCYQ; Definition of Artificial Sequence: Synthetic peptide) [reference compound]” here?
Its value is “no significant activity”.

And the “thapsigargin-induced IL-2 production in human whole blood (in words)” value [4]?
Its value is “no significant activity”.

What about the “thapsigargin-induced upregulation of CD40L on T cells in human whole blood (in words)” value [5] of the same compound?
The value was “no significant activity”.

What about the “thapsigargin-induced IFN-g production in human whole blood (in words)” value [6] of the same compound?
Its value is “no significant activity”.

Which results are given for “OSK1 (native Orthochirus scrobiculosus toxin peptide)”?
Kv1.1 (IC50, pM), whole cell patch clamp ePhys [7]: 202 pM; Kv1.3 (IC50, pM), whole cell patch clamp ePhys [8]: 39 pM; Kv1.3 Selectivity (=Kv1.1/Kv.3 IC50) [8]: 5
